Test results taken from US11427548B2 (Arvinas Operations, Inc., priority 2015, dated 2022).
Read-outs that look alike come from different tables or passages of the source.

Target: T1, Androgen Receptor (Homo sapiens, UniProt P10275)
T1 construct: endogenous in cells; host or cells: VCaP cells
T1 sequence (P10275 1-920): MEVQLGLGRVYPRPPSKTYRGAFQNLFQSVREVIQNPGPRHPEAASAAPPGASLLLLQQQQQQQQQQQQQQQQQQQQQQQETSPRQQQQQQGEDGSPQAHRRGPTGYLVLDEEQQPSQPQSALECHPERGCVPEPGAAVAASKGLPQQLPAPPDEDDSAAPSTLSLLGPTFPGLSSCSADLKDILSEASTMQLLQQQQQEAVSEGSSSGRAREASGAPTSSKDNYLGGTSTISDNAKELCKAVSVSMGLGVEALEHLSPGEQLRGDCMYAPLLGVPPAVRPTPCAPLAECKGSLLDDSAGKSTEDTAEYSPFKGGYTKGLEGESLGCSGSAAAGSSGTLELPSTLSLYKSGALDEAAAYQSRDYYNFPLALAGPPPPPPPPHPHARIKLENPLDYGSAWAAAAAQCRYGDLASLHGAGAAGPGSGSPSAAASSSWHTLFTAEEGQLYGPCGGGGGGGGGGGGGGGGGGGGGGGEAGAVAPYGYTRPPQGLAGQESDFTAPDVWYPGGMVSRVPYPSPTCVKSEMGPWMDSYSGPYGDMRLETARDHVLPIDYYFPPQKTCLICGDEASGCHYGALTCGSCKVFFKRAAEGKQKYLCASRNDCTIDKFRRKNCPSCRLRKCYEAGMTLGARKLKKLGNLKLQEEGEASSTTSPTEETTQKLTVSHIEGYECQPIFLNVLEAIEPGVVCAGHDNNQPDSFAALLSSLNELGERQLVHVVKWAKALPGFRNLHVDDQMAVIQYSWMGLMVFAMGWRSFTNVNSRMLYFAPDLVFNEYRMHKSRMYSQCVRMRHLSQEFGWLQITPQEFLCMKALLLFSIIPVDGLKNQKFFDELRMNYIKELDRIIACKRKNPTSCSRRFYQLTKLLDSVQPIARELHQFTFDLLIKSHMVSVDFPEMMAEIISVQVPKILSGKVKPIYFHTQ
Assay: Androgen Receptor ELISA assay (PathScan AR ELISA) in VCaP cells: AR degradation, Dmax and DC50
Assay type: cell-based
In short: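 VCaP cells, 30,000/well, grown ≥3 days in phenol red-free RPMI with 5% charcoal-stripped FBS; compound added in 0.1% DMSO with 0.1 nM R1881, 7 half-log doses, 24 h. Lysate AR quantified by PathScan sandwich ELISA, HRP/TMB read at 450 nm, giving DC50 and Dmax.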

[1] = VCaP cells; Table 35; read-out: VCaP DC50
[2] = VCaP, VCaP cells; Table 35; read-out: VCaP Dmax (%)
[3] = read-out: VCaP DC50; VCaP cells; Table 35

DC50 [1]	Dmax [2]	SMILES	Dmax (VCaP, read-out: VCaP Dmax (%))	DC50 [3]
> 501 nM	26 to 50%	Cc1ncsc1-c1ccc(CNC(=O)[C@@H]2C[C@@H](O)CN2C(=O)[C@@H](NC(=O)COCCNc2ccc(-c3ccc(C(=O)N[C@H]4C(C)(C)[C@H](Oc5ccc(C#N)c(Cl)c5)C4(C)C)cc3)cn2)C(C)(C)C)nc1 [Example 446]	–	–
< 50 nM	> 71%	Cc1ncsc1-c1ccc([C@H](C)NC(=O)[C@@H]2C[C@@H](O)CN2C(=O)[C@@H](NC(=O)COCC2CCN(c3ccc(C(=O)N[C@H]4C(C)(C)[C@H](Oc5ccc(C#N)c(Cl)c5)C4(C)C)cc3)CC2)C(C)(C)C)cc1 [Example 447]	–	–
< 50 nM	> 71%	Cc1ncsc1-c1ccc([C@H](C)NC(=O)[C@@H]2C[C@@H](O)CN2C(=O)[C@@H](NC(=O)CNC(=O)c2ccc(Oc3ccc(C(=O)N[C@H]4C(C)(C)[C@H](Oc5ccc(C#N)c(Cl)c5)C4(C)C)cn3)cc2)C(C)(C)C)cc1 [Example 448]	–	–
< 50 nM	> 71%	Cc1nccn1-c1ccc([C@H](C)NC(=O)[C@@H]2C[C@@H](O)CN2C(=O)[C@@H](NC(=O)COCCOc2ccc(-c3ccc(C(=O)N[C@H]4C(C)(C)[C@H](Oc5ccc(C#N)c(Cl)c5)C4(C)C)cc3)cc2)C(C)(C)C)cc1 [Example 449]	–	–
< 50 nM	> 71%	Cc1ncsc1-c1ccc([C@H](C)NC(=O)[C@@H]2C[C@@H](O)CN2C(=O)[C@@H](NC(=O)COCCOc2ccc(-c3ccc(C(=O)N[C@H]4C(C)(C)[C@H](Oc5ccc(C#N)c(Cl)c5)C4(C)C)cc3)cc2)C(C)(C)C)cc1 [Example 450]	–	–
–	–	CN(C)c1ccc(CNC(=O)[C@@H]2C[C@@H](O)CN2C(=O)[C@@H](NC(=O)COCCCOCCCCCOc2ccc(N3C(=S)N(c4ccc(C#N)c(C(F)(F)F)c4)C(=O)C3(C)C)cc2)C(C)(C)C)cn1 [Example 451]	< 25%	> 501 nM
–	–	C[C@H](NC(=O)[C@@H]1C[C@@H](O)CN1C(=O)[C@@H](NC(=O)COCCCOCCCCCOc1ccc(N2C(=S)N(c3ccc(C#N)c(C(F)(F)F)c3)C(=O)C2(C)C)cc1)C(C)(C)C)c1ccc(-c2nccn2C)cc1 [Example 452]	< 25%	> 501 nM
–	–	Cc1ncsc1-c1ccc(CNC(=O)[C@@H]2C[C@@H](O)CN2C(=O)[C@@H](NC(=O)COCCCOCCCCCOc2ccc(N3C(=S)N(c4ccc(C#N)c(C(F)(F)F)c4)C(=O)C3(C)C)cc2)C(C)(C)C)nc1 [Example 453]	< 25%	> 501 nM
> 501 nM	26 to 50%	Cc1ncsc1-c1ccc([C@@H](C)NC(=O)[C@H]2C[C@H](O)CN2C(=O)[C@H](NC(=O)COCCCCCNc2ccc(C(=O)N[C@H]3C(C)(C)[C@H](Oc4ccc(C#N)c(Cl)c4)C3(C)C)cc2)C(C)(C)C)cc1 [Example 454]	–	–
> 501 nM	51 to 70%	Cc1ncsc1-c1ccc([C@H](C)NC(=O)[C@@H]2C[C@@H](O)CN2C(=O)C(NC(=O)COCCCCCNc2ccc(C(=O)N[C@H]3C(C)(C)[C@@H](Oc4ccc(C#N)c(Cl)c4)C3(C)C)cc2)C(C)(C)C)cc1 (stereo partly shown) [Example 455]	–	–
< 50 nM	> 71%	Cc1ncsc1-c1ccc([C@H](C)NC(=O)[C@@H]2C[C@@H](O)CN2C(=O)[C@@H](NC(=O)COCCC2CCN(c3ccc(C(=O)N[C@H]4C(C)(C)[C@H](Oc5ccc(C#N)c(Cl)c5)C4(C)C)cc3)CC2)C(C)(C)C)cc1 [Example 456]	–	–
> 501 nM	< 25%	Cc1ncsc1-c1ccc([C@H](C)NC(=O)[C@@H]2C[C@@H](O)CN2C(=O)[C@H](NC(=O)COCCCCCNc2ccc(C(=O)N[C@H]3C(C)(C)[C@H](Oc4ccc(C#N)c(Cl)c4)C3(C)C)cc2)C(C)(C)C)cc1 [Example 457]	–	–
> 501 nM	< 25%	Cc1ncsc1-c1ccc([C@H](C)NC(=O)[C@H]2C[C@@H](O)CN2C(=O)[C@@H](NC(=O)COCCCCCNc2ccc(C(=O)N[C@H]3C(C)(C)[C@H](Oc4ccc(C#N)c(Cl)c4)C3(C)C)cc2)C(C)(C)C)cc1 [Example 458]	–	–
> 501 nM	26 to 50%	Cc1ncsc1-c1ccc([C@@H](C)NC(=O)[C@@H]2C[C@@H](O)CN2C(=O)[C@@H](NC(=O)COCCCCCNc2ccc(C(=O)N[C@H]3C(C)(C)[C@H](Oc4ccc(C#N)c(Cl)c4)C3(C)C)cc2)C(C)(C)C)cc1 [Example 459]	–	–
